# Measurements from US20150296790A1, “SILICON-CONTAINING COMPOUND AQUEOUS SOLUTION AND ANTIBACTERIAL/ANTIVIRAL AGENT INCLUDING SAID SOLUTION” (JEX CO., LTD., priority 2012, published 2015).
# Test: Stability over time (three-month storage tests, visual)
# Format: physicochemical
# Conditions: purified water
structure (smiles),measurement,setting,value
"CCCCCCCCCCCCCCCCCC[N+](C)(C)CCC[Si](OCC)(OCC)OCC.[Cl-] [Compound E, Octadecyl dimethyl(3-triethoxysilylpropyl)ammonium chloride]","Change Over 3 Months (Accelerated Test at 40° C., Cold Test at 5° C., Ambient Test at 25° C.)","α-CD 1 w/w %, Compound E 0.7 w/w %",Stable
same,"Change Over 3 Months (Accelerated Test at 40° C., Cold Test at 5° C., Ambient Test at 25° C.)","α-CD 1 w/w %, Compound E 0.8 w/w %",Clear but some precipitation was observed
same,"Change Over 3 Months (Accelerated Test at 40° C., Cold Test at 5° C., Ambient Test at 25° C.)","α-CD 1 w/w %, Compound E 0.9 w/w %",Clear but some precipitation was observed
same,"Change Over 3 Months (Accelerated Test at 40° C., Cold Test at 5° C., Ambient Test at 25° C.)","α-CD 1 w/w %, Compound E 1 w/w %",Clear but some precipitation was observed
same,"Change Over 3 Months (Accelerated Test at 40° C., Cold Test at 5° C., Ambient Test at 25° C.)","α-CD 7 w/w %, Compound E 0.1 w/w %",Stable
same,"Change Over 3 Months (Accelerated Test at 40° C., Cold Test at 5° C., Ambient Test at 25° C.)","α-CD 7 w/w %, Compound E 0.2 w/w %",Stable
same,"Change Over 3 Months (Accelerated Test at 40° C., Cold Test at 5° C., Ambient Test at 25° C.)","α-CD 7 w/w %, Compound E 0.3 w/w %",Stable
same,"Change Over 3 Months (Accelerated Test at 40° C., Cold Test at 5° C., Ambient Test at 25° C.)","α-CD 7 w/w %, Compound E 0.4 w/w %",Stable
same,"Change Over 3 Months (Accelerated Test at 40° C., Cold Test at 5° C., Ambient Test at 25° C.)","α-CD 7 w/w %, Compound E 0.5 w/w %",Stable
same,"Change Over 3 Months (Accelerated Test at 40° C., Cold Test at 5° C., Ambient Test at 25° C.)","α-CD 7 w/w %, Compound E 0.6 w/w %",Stable
same,"Change Over 3 Months (Accelerated Test at 40° C., Cold Test at 5° C., Ambient Test at 25° C.)","α-CD 7 w/w %, Compound E 0.7 w/w %",Stable
same,"Change Over 3 Months (Accelerated Test at 40° C., Cold Test at 5° C., Ambient Test at 25° C.)","α-CD 7 w/w %, Compound E 0.8 w/w %",Stable
same,"Change Over 3 Months (Accelerated Test at 40° C., Cold Test at 5° C., Ambient Test at 25° C.)","α-CD 7 w/w %, Compound E 0.9 w/w %",Stable
same,"Change Over 3 Months (Accelerated Test at 40° C., Cold Test at 5° C., Ambient Test at 25° C.)","α-CD 7 w/w %, Compound E 1 w/w %",Stable
same,"Change Over 3 Months (Accelerated Test at 40° C., Cold Test at 5° C., Ambient Test at 25° C.)","β-CD 1 w/w %, Compound E 0.1 w/w %",Not changed
same,"Change Over 3 Months (Accelerated Test at 40° C., Cold Test at 5° C., Ambient Test at 25° C.)","β-CD 1 w/w %, Compound E 0.2 w/w %",Not changed
same,"Change Over 3 Months (Accelerated Test at 40° C., Cold Test at 5° C., Ambient Test at 25° C.)","β-CD 1 w/w %, Compound E 0.3 w/w %",Not changed
same,"Change Over 3 Months (Accelerated Test at 40° C., Cold Test at 5° C., Ambient Test at 25° C.)","β-CD 1 w/w %, Compound E 0.4 w/w %",Not changed
same,"Change Over 3 Months (Accelerated Test at 40° C., Cold Test at 5° C., Ambient Test at 25° C.)","β-CD 1 w/w %, Compound E 0.5 w/w %",Not changed
same,"Change Over 3 Months (Accelerated Test at 40° C., Cold Test at 5° C., Ambient Test at 25° C.)","β-CD 1 w/w %, Compound E 0.6 w/w %",Not changed
same,"Change Over 3 Months (Accelerated Test at 40° C., Cold Test at 5° C., Ambient Test at 25° C.)","β-CD 1 w/w %, Compound E 0.7 w/w %",Not changed
same,"Change Over 3 Months (Accelerated Test at 40° C., Cold Test at 5° C., Ambient Test at 25° C.)","β-CD 1 w/w %, Compound E 0.8 w/w %",Not changed
same,"Change Over 3 Months (Accelerated Test at 40° C., Cold Test at 5° C., Ambient Test at 25° C.)","β-CD 1 w/w %, Compound E 0.9 w/w %",Not changed
same,"Change Over 3 Months (Accelerated Test at 40° C., Cold Test at 5° C., Ambient Test at 25° C.)","β-CD 1 w/w %, Compound E 1 w/w %",Not changed
same,"Change Over 3 Months (Accelerated Test at 40° C., Cold Test at 5° C., Ambient Test at 25° C.)","γ-CD 10 w/w %, Compound E 0.1 w/w %",Precipitated
same,"Change Over 3 Months (Accelerated Test at 40° C., Cold Test at 5° C., Ambient Test at 25° C.)","γ-CD 10 w/w %, Compound E 0.2 w/w %",Precipitated
same,"Change Over 3 Months (Accelerated Test at 40° C., Cold Test at 5° C., Ambient Test at 25° C.)","γ-CD 10 w/w %, Compound E 0.3 w/w %",Precipitated
same,"Change Over 3 Months (Accelerated Test at 40° C., Cold Test at 5° C., Ambient Test at 25° C.)","γ-CD 10 w/w %, Compound E 0.4 w/w %",Precipitated
same,"Change Over 3 Months (Accelerated Test at 40° C., Cold Test at 5° C., Ambient Test at 25° C.)","γ-CD 10 w/w %, Compound E 0.5 w/w %",Precipitated
same,"Change Over 3 Months (Accelerated Test at 40° C., Cold Test at 5° C., Ambient Test at 25° C.)","γ-CD 10 w/w %, Compound E 0.6 w/w %",Precipitated
same,"Change Over 3 Months (Accelerated Test at 40° C., Cold Test at 5° C., Ambient Test at 25° C.)","γ-CD 10 w/w %, Compound E 0.7 w/w %",Precipitated
same,"Change Over 3 Months (Accelerated Test at 40° C., Cold Test at 5° C., Ambient Test at 25° C.)","γ-CD 10 w/w %, Compound E 0.8 w/w %",Precipitated
same,"Change Over 3 Months (Accelerated Test at 40° C., Cold Test at 5° C., Ambient Test at 25° C.)","γ-CD 10 w/w %, Compound E 0.9 w/w %",Precipitated
same,"Change Over 3 Months (Accelerated Test at 40° C., Cold Test at 5° C., Ambient Test at 25° C.)","γ-CD 10 w/w %, Compound E 1 w/w %",Precipitated
